This note sets out measurements from patent publication US10519118B2, “KDM1A inhibitors for the treatment of disease” (Imago Biosciences, Inc., priority 2015, dated 2019).

What all share (type): physicochemical
A short description of series [1]: Solvent solubility assessment with increasing volumes of solvent. Set-up: key to Solubility observation: # = clear solution; x = suspension. How it is done:
Example 1 was treated with increasing volumes of solvent (2-propanol (IPA), acetone, methylethyl ketone, ethyl acetate, tetrahydrofuran, acetonitrile, 1,4-dioxane, 90:10 IPA:water, 90:10 THF:water, tert-butylmethyl ether (MTBE), and n-heptane) until the material fully dissolved or until a maximum of 100 vol. had been used. After each addition of solvent, the system was stirred at 25° C. for 10 min before the addition of a new aliquot of solvent. Example 1 was readily soluble in 2-propanol (IPA), acetone, methylethyl ketone, ethyl acetate, tetrahydrofuran, acetonitrile, 1,4-dioxane, 90:10 IPA:water, and 90:10 THF:water, dissolving readily in 10 vol. solvent. MTBE and n-heptane were identified as anti-solvents when Example 1 was not soluble in 100 vol. solvent.
Amorphous Example 1 (10 mg) was treated with increasing volumes of solvent at 25° C. with stirring (Table #). […] For those instances where dissolution was not observed, the samples were placed at 50° C. for 10 minutes. To all samples still in suspension, a further 10 volumes of solvents were added and the sample placed at 25° C. The temperature was then once again increased to 50° C. and maintained until the end of the experiment. Further solvent was added until the material fully dissolved or until a maximum of 70 volumes had been used. Hydrochloric acid was then added (1.1 equivalents) to all samples. A cooling ramp was set to 5° C. at 0.1° C./min and the solutions or oils were stirred at this temperature overnight, yielding oils or solutions.
Crystalline bis tosylate Form 2 (30 mg) was treated with increasing volumes of solvent (n-Heptane, diethyl ether, ethyl acetate, isopropyl acetate, methylisobutyl ketone, 2-propanol, methylethyl ketone, acetone, dimethyl sulfoxide, water, tert-butylmethyl ether, cyclohexane, 1,4-dioxane, toluene, chloroform, 1,2-dimethoxyethane, tetrahydrofuran, N,N-dimethylformamide, acetonitrile, nitromethane, N-methylpyrrolidone, tetrahydrofuran:water 95:5, 2-propanol:water 95:5, or acetone:water 95:5 at 5, 10, 20, 30, 50, 70, or 100 vol total) until the material fully dissolved or until a maximum of 100 vol had been added. After each addition of solvent, the system was shaken gently for 10 minutes at 50° C. and then allowed to stand at ambient conditions for 5 minutes before the addition of a new aliquot of solvent. After the assessment was completed, any suspensions obtained were matured and clear solutions were cooled to 4° C. and held isothermally.

Series [2] is described as follows: Chemical stability of Example 1 free base lots, HPLC purity re-test. How it is done:
Various lots of Example 1 were analyzed by HPLC shortly after synthesis (analysis from 1-24 hours post-synthesis) and re-tested for purity a unit of time later.
Purity analysis was performed on an Agilent HP1100 series system equipped with a diode array detector and using ChemStation software vB.04.03 using one of the methods detailed below: […]

Series [3] can be described thus: Solid-state storage stability at elevated temperature and humidity (40° C./75% RH, 25° C./95-97% RH).
The nature of series [4]: Gravimetric vapour sorption (GVS), hygroscopicity. The note with it: for hygroscopicity: in words. How it is done:
Typically 5-20 mg of sample was placed in a tared mesh stainless steel basket under ambient conditions. The sample was loaded and unloaded at 40% RH and 25° C. (typical room conditions). A moisture sorption isotherm was performed as outlined below (2 scans giving 1 complete cycle). The standard isotherm was performed at 25° C. at 10% RH intervals over a 0-90% RH range. Data analysis was carried out using Microsoft Excel using DVS Analysis Suite v6.2 (or 6.1 or 6.0).
Sorption isotherms were obtained using a SMS DVS Intrinsic moisture sorption analyzer, controlled by DVS Intrinsic Control software v1.0.1.2 (or v 1.0.1.3). The sample temperature was maintained at 25° C. by the instrument controls. The humidity was controlled by mixing streams of dry and wet nitrogen, with a total flow rate of 200 mL/min The relative humidity was measured by a calibrated Rotronic probe (dynamic range of 1.0-100% RH), located near the sample. The weight change, (mass relaxation) of the sample as a function of % RH was constantly monitored by the microbalance (accuracy±0.005 mg).

Structures are written as SMILES. Values joined by “and” are separate entries in the source; they are usually repeats but may differ in a detail not shown here. Identical values can stand only once.

For the compound `CN1CCN(C(=O)[C@H](CCCN[C@@H]2C[C@H]2c2ccc(F)cc2)NC(=O)c2ccc(-n3ccnn3)cc2)CC1.Cc1ccc(S(=O)(=O)O)cc1.Cc1ccc(S(=O)(=O)O)cc1` [Example 1 bis tosylate Form 2, N—((S)-5-((1R,2S)-2-(4-fluorophenyl)cyclopropylamino)-1-(4-methylpiperazin-1-yl)-1-oxopentan-2-yl)-4-(1H-1,2,3-triazol-1-yl)benzamide bis-tosylate Form 2], the “solvent volume needed to dissolve” value in series [1] (crystalline bis tosylate Form 2, all other solvents tested incl. water, remained a suspension) was > 100 vol; in series [1] (crystalline bis tosylate Form 2, dimethylsulfoxide and N,N-dimethylformamide, 50° C. shaking), 5 vol; in series [1] (crystalline bis tosylate Form 2, tetrahydrofuran:water 95:5) it was 10 vol.

For `CN1CCN(C(=O)C(CN[C@@H]2C[C@H]2c2ccc(F)cc2)NC(=O)c2ccc(-n3ccnn3)cc2)CC1` (stereo partly drawn) [Example 1, N-[3-[[(1R,2S)-2-(4-Fluorophenyl)cyclopropyl]amino]-1-(4-methylpiperazin-1-yl)-1-oxopropan-2-yl]-4-(1H-1,2,3-triazol-1-yl)benzamide], the “Re-Test Purity” value is reported as 82% in series [2] (free base Lot 1, 49 days between tests) and 72% in series [2] (free base Lot 2, 16 days between tests). The “stability at ambient conditions” value in series [2] (free base form) is reported as “degrades at ambient conditions over time”. Also, in series [2] (free base lots, HPLC 1-24 hours post-synthesis), the “Initial Purity” value was 93% and 81%. Also, the Solubility observation result in series [1] (1-Butanol, 10 vol 25° C.) is given as “#”; in series [1] (1-Propanol, 10 vol 25° C.) it was “#”; in series [1] (2-Propanol, 10 vol 25° C.), “#”; in series [1] (Acetone, 10 vol 25° C.), “#”; in series [1] (Acetone:Water (90:10), 10 vol 25° C.) it was “#”; in series [1] (Acetone:Water (95:5), 10 vol 25° C.), “#”. The Solubility observation entry in series [1] (Acetonitrile, 10 vol 25° C.) is recorded as “#”; in series [1] (Anisole, 10 vol 25° C.) it was “#”; in series [1] (Cyclohexane, 10 vol 25° C.), “oil”; in series [1] (Cyclohexane, 10 vol 50° C.) it was “oil”; in series [1] (Cyclohexane, 20 vol 25° C.) it was “oil”; in series [1] (Cyclohexane, 20 vol 50° C.), “oil”. Besides, the Solubility observation entry in series [1] (Cyclohexane, 40 vol 50° C.) is reported as “oil”; in series [1] (Cyclohexane, 70 vol 50° C.), “oil”; in series [1] (Dichloromethane, 10 vol 25° C.) it was “#”; in series [1] (Diethyl ether, 10 vol 25° C.) it was “oil”; in series [1] (Diethyl ether, 10 vol 50° C.), “oil”; in series [1] (Diethyl ether, 20 vol 25° C.) it was “oil”. Further, the Solubility observation result was “oil” in series [1] (Diethyl ether, 20 vol 50° C.); “oil” in series [1] (Diethyl ether, 40 vol 50° C.); “oil” in series [1] (Diethyl ether, 70 vol 50° C.); “#” in series [1] (Dimethyl sulfoxide, 10 vol 25° C.); “#” in series [1] (EtOH:Water (85:15), 10 vol 25° C.); “#” in series [1] (Ethanol, 10 vol 25° C.). The Solubility observation entry in series [1] (IPA:Water (85:15), 10 vol 25° C.) is listed as “#”; in series [1] (Isopropyl acetate, 10 vol 25° C.), “#”; in series [1] (MEK, 10 vol 25° C.) it was “#”; in series [1] (MIBK, 10 vol 25° C.), “#”; in series [1] (MeOH:Water (85:15), 10 vol 25° C.), “#”; in series [1] (Methanol, 10 vol 25° C.), “#”. Further, the Solubility observation entry is recorded as “#” in series [1] (Methyl acetate, 10 vol 25° C.); “#” in series [1] (Propyl acetate, 10 vol 25° C.); “#” in series [1] (Toluene, 10 vol 25° C.); “x” in series [1] (Water, 10 vol 25° C.); “x” in series [1] (Water, 10 vol 50° C.); “x” in series [1] (Water, 20 vol 25° C.). In addition, the Solubility observation entry is “oil” in series [1] (Water, 20 vol 50° C.); “oil” in series [1] (Water, 40 vol 50° C.); “oil” in series [1] (Water, 70 vol 50° C.). The “solvent volume needed to dissolve” value in series [1] (25° C., IPA, acetone, methylethyl ketone, ethyl acetate, THF, acetonitrile, 1,4-dioxane, 90:10 IPA:water, 90:10 THF:water) is listed as 10 vol; in series [1] (25° C., MTBE and n-heptane (anti-solvents)), > 100 vol; in series [1] (amorphous free base, most solvents at 25° C.), 10 volumes. In addition, in series [1] (amorphous free base, water, diethyl ether, cyclohexane, up to 70 volumes, 25-50° C.), the observation in solvent entry is “oils eventually formed”. Further, the “behaviour at high humidity” value in series [3] (free base form) was “deliquesces”. The “stability at elevated storage conditions” value in series [3] (free base, 25° C./97% RH and 40° C./75% RH) is listed as “deliquesced”. Also, in series [4], the hygroscopicity entry is “hygroscopic”.

As to `O=C(O)C(O)C(O)C(=O)O` (stereo not drawn) [tartrate], the “Storage at 40° C. and 75% RH (form by XRPD)” value in series [3] (one week / 7 days) is given as “no change in form was observed”. Besides, in series [3] (scaled-up salts), the “Storage at both 40° C. and 75% RH and 25° C. and 95% RH (form, purity)” value was “changes in crystallinity and form”. In series [4] (25° C., full cycle 0-90% RH), the GVS water uptake is ~30 % w/w. Besides, the hygroscopicity result in series [4] was “highly hygroscopic”.
